Where “and” joins values, the source holds several entries; their conditions need not be identical. Equal values may be shown once.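 Briefly, cells in 96-well plates were exposed to five compound concentrations for 48 h, and endpoints were estimated by linear interpolation. GI50 = concentration required for 50% inhibition of growth. The concentration for full growth arrest is given as TGI.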
Experiments:
Assay in all cases: NCI tumour cell line growth inhibition, 48 h
SK-MEL-2 melanoma = tested on: SK-MEL-2 melanoma
U251 CNS = tested on: U251 CNS
XF 498 CNS = tested on: XF 498 CNS
786-0 renal = tested on: 786-0 renal
SK-MEL-5 melanoma = tested on: SK-MEL-5 melanoma
SN12C renal = tested on: SN12C renal
HOP-92 NSCLC = tested on: HOP-92 NSCLC
OVCAR-4 ovarian = tested on: OVCAR-4 ovarian
HOP-18 NSCLC = tested on: HOP-18 NSCLC
OVCAR-5 ovarian = tested on: OVCAR-5 ovarian
M14 melanoma = tested on: M14 melanoma
A498 renal = tested on: A498 renal
NCI-H460 lung = tested on: NCI-H460 lung
MALME-3M melanoma = tested on: MALME-3M melanoma
RPMI-8226 leukemia = tested on: RPMI-8226 leukemia
SF-539 CNS = tested on: SF-539 CNS
SNB-19 CNS = tested on: SNB-19 CNS
SNB-78 CNS = tested on: SNB-78 CNS
OVCAR-8 ovarian = tested on: OVCAR-8 ovarian
NCI-H522 lung = tested on: NCI-H522 lung
HT29 colon = tested on: HT29 colon
SW-620 colon = tested on: SW-620 colon
ACHN renal = tested on: ACHN renal
SNB-75 CNS = tested on: SNB-75 CNS
KM20L2 colon = tested on: KM20L2 colon
HOP-62 NSCLC = tested on: HOP-62 NSCLC
SR leukemia = tested on: SR leukemia
HCT-116 colon = tested on: HCT-116 colon
RXF 393 renal = tested on: RXF 393 renal
IGROV1 ovarian = tested on: IGROV1 ovarian
LXFL 529 NSCLC = tested on: LXFL 529 NSCLC
NCI-H23 lung = tested on: NCI-H23 lung
UACC-62 melanoma = tested on: UACC-62 melanoma
HCT-15 colon = tested on: HCT-15 colon
NCI-H226 lung = tested on: NCI-H226 lung
MOLT-4 leukemia = tested on: MOLT-4 leukemia
DLD-1 colon = tested on: DLD-1 colon
HL-60(TB) leukemia = tested on: HL-60(TB) leukemia
UACC-257 melanoma = tested on: UACC-257 melanoma
OVCAR-3 ovarian = tested on: OVCAR-3 ovarian
CAKI-1 renal = tested on: CAKI-1 renal
SK-MEL-28 melanoma = tested on: SK-MEL-28 melanoma
CCRF-CEM leukemia = tested on: CCRF-CEM leukemia
A549 NSCLC = tested on: A549 NSCLC
HCC-2998 colon = tested on: HCC-2998 colon
DMS 273 small cell lung = tested on: DMS 273 small cell lung
SK-OV-3 ovarian = tested on: SK-OV-3 ovarian
UO-31 renal = tested on: UO-31 renal
EKVX NSCLC = tested on: EKVX NSCLC
SF-268 CNS = tested on: SF-268 CNS
DMS 114 small cell lung = tested on: DMS 114 small cell lung
LOX IMVI melanoma = tested on: LOX IMVI melanoma
TK-10 renal = tested on: TK-10 renal
COLO 205 colon = tested on: COLO 205 colon
SF-295 CNS = tested on: SF-295 CNS
KM12 colon = tested on: KM12 colon
K-562 leukemia = tested on: K-562 leukemia

Q: Which results are given for `CCCCCCCCCCCCCC(=O)OC(/C=C/C(C)C)C(O)C(O)C(OC)C(=O)NC1CCCCNC1=O` (stereo not drawn)?
A: TGI (SK-MEL-2 melanoma): 6.03 µM; GI50 (U251 CNS): 2.47 µM; TGI (U251 CNS): 4.3 µM; TGI (XF 498 CNS): 5.47 µM; GI50 (786-0 renal): 1.56 µM; TGI (786-0 renal): 3.93 µM; GI50 (SK-MEL-5 melanoma): 6.53 µM; TGI (SK-MEL-5 melanoma): 5.25 µM; TGI (SN12C renal): 4.39 µM; TGI (HOP-92 NSCLC): 3.76 µM; GI50 (OVCAR-4 ovarian): 3.97 µM; TGI (OVCAR-4 ovarian): 6.76 µM; TGI (HOP-18 NSCLC): 10.5 µM; TGI (OVCAR-5 ovarian): 9.63 µM; GI50 (M14 melanoma): 2.61 µM; TGI (M14 melanoma): 4.35 µM; TGI (A498 renal): 14.6 µM; GI50 (NCI-H460 lung): 0.461 µM; TGI (NCI-H460 lung): 3.85 µM; TGI (MALME-3M melanoma): 5.36 µM; TGI (RPMI-8226 leukemia): 15.9 µM; GI50 (SF-539 CNS): 2.29 µM; TGI (SF-539 CNS): 5.22 µM; TGI (SNB-19 CNS): 9.08 µM; TGI (SNB-78 CNS): 9.18 µM; GI50 (OVCAR-8 ovarian): 2.77 µM; TGI (OVCAR-8 ovarian): 5.08 µM; GI50 (NCI-H522 lung): 5.27 µM; TGI (NCI-H522 lung): 4.23 µM; GI50 (HT29 colon): 4.03 µM; TGI (HT29 colon): 4.51 µM; GI50 (SW-620 colon): 4.4 µM; TGI (SW-620 colon): 4.46 µM; GI50 (ACHN renal): 4.1 µM; TGI (ACHN renal): 4.76 µM; GI50 (SNB-75 CNS): 4.63 µM; TGI (SNB-75 CNS): 9.46 µM; TGI (KM20L2 colon): 4.89 µM; GI50 (HOP-62 NSCLC): 3.88 µM; TGI (HOP-62 NSCLC): 6.8 µM; GI50 (SR leukemia): 0.381 µM; TGI (SR leukemia): 2.04 µM and 9.05 µM; GI50 (HCT-116 colon): 1.22 µM; TGI (HCT-116 colon): 3.97 µM; TGI (RXF 393 renal): 3.38 µM; GI50 (IGROV1 ovarian): 0.65 µM; TGI (IGROV1 ovarian): 5.15 µM; TGI (LXFL 529 NSCLC): 4.88 µM; GI50 (NCI-H23 lung): 8.82 µM; TGI (NCI-H23 lung): 5 µM; GI50 (UACC-62 melanoma): 4.28 µM; TGI (UACC-62 melanoma): 3.74 µM; GI50 (HCT-15 colon): 4.25 µM; TGI (HCT-15 colon): 4.8 µM; TGI (NCI-H226 lung): 8.95 µM; GI50 (MOLT-4 leukemia): 5.57 µM; TGI (MOLT-4 leukemia): 10.5 µM; TGI (DLD-1 colon): 5.07 µM; TGI (HL-60(TB) leukemia): 10.4 µM; GI50 (UACC-257 melanoma): 6.37 µM; TGI (UACC-257 melanoma): 6.5 µM; GI50 (OVCAR-3 ovarian): 6.19 µM; TGI (OVCAR-3 ovarian): 5.38 µM; TGI (CAKI-1 renal): 3.81 µM; TGI (SK-MEL-28 melanoma): 5.11 µM; GI50 (CCRF-CEM leukemia): 5.7 µM; TGI (CCRF-CEM leukemia): 11.9 µM; GI50 (A549 NSCLC): 1.12 µM; TGI (A549 NSCLC): 4.28 µM; GI50 (HCC-2998 colon): 5.64 µM; TGI (HCC-2998 colon): 4.13 µM; TGI (DMS 273 small cell lung): 2.81 µM; TGI (SK-OV-3 ovarian): 10.4 µM; TGI (UO-31 renal): 4.98 µM; TGI (EKVX NSCLC): 11.5 µM; TGI (SF-268 CNS): 3.63 µM; TGI (DMS 114 small cell lung): 3.85 µM; GI50 (LOX IMVI melanoma): 1.73 µM; TGI (LOX IMVI melanoma): 4.38 µM; GI50 (TK-10 renal): 8.26 µM; TGI (TK-10 renal): 11.6 µM; TGI (COLO 205 colon): 3.69 µM; GI50 (SF-295 CNS): 2.92 µM; TGI (SF-295 CNS): 4.42 µM; GI50 (KM12 colon): 3.92 µM; TGI (KM12 colon): 4.59 µM; GI50 (K-562 leukemia): 2.68 µM; TGI (K-562 leukemia): 10.2 µM

— PubChem BioAssay (NCI)
